Data on nine molecules can be found in patent publication US20160058881A1, “PRODRUGS WITH PROLONGED ACTION” (INDIANA UNIVERSITY RESEARCH AND TECHNOLOGY CORPORATION, priority 2013, published 2016).

What is called half-life is how long it takes for the measured level to halve. Read a high half-life as slow decline.

Where two headings read alike, the source gives them in different places. Starred links: 1 amine or outer side, 2 acyl side, 3 side chain; linkers in the order of their positions; H or OH if unused. Non-standard residues stand in square brackets, D forms with d. Residues, ends and D or L forms follow the SMILES beside them. Groups on a side chain read outwards from the residue. No end group written: not given here. *: point of attachment. Phe(4-NH2) = Nc1ccc(C[C@H](N)C(=O)O)cc1; Arachidoyl = CCCCCCCCCCCCCCCCCCCC(=O)*; d(εLys) = N[C@H](CCCCN[*:1])C(=O)[*:2]; Aib = CC(C)(N)C(=O)O; Sar = CNCC(=O)O Bounds are passed on as bounds.

The target in data set [1] is T1, GLP-1 receptor (Homo sapiens, UniProt P43220). The experiment in a line: GLP-receptor luciferase bioassay of samples incubated in 20% human plasma (restored activity). Format: cell-based. Conditions: 37° C. The protocol:
To explore the possible formation of DKP and simultaneous regeneration of the parent drug, the above-mentioned peptides were incubated in 20% human plasma at 37° C. for approximately 5 days. Samples were collected at different time points (0, 1, 2, and 5 days).
Target sequence in this assay (P43220 24-463): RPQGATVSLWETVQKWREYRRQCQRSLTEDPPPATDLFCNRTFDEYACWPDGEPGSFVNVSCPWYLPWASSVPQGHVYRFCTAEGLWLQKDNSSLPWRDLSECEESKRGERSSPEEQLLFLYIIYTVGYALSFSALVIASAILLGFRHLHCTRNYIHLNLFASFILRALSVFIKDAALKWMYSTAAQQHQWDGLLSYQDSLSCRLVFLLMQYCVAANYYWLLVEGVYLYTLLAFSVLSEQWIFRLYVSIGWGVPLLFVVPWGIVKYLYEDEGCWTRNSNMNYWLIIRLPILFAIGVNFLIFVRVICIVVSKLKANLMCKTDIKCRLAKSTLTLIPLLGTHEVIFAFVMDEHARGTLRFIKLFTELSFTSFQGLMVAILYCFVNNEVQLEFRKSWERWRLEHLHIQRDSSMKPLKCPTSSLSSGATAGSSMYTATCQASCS

Data set [2] is classed as physicochemical. The following applies: buffer. The protocol:
Preliminary analyses were performed with these crude peptides for an approximation of their relative conversion rates in Phosphate Buffered Saline (PBS) buffer (pH, 7.2) using high performance liquid chromatography (HPLC) and MALDI analysis. The crude peptide samples were dissolved in the PBS buffer at a concentration of 1 mg/mL. […] Aliquots of 100 μL were drawn out at various time intervals, cooled to room temperature and analyzed by HPLC. […] The peptides described above were incubated in PBS buffer or serum at 37° C. for up to 8 days. Samples were collected at different time points for PBS and plasma and half-life was determined. […] The peptides described above were incubated in PBS buffer or serum at 37° C. for up to 8 days. Samples were collected at different time points for PBS and plasma and half-life was determined. […] The shorter half-life seen when the acylated dipeptide was linked to […] might be due to a conformational change that facilitates cleavage when bound to plasma or alternatively to reduced detection of the acylated form when bound to plasma.

The format of data set [3] is in vitro ADME. The procedure:
The peptides described above were incubated in PBS buffer or serum at 37° C. for up to 8 days. Samples were collected at different time points for PBS and plasma and half-life was determined. […] The peptides described above were incubated in PBS buffer or serum at 37° C. for up to 8 days. Samples were collected at different time points for PBS and plasma and half-life was determined. […] The shorter half-life seen when the acylated dipeptide was linked to […] might be due to a conformational change that facilitates cleavage when bound to plasma or alternatively to reduced detection of the acylated form when bound to plasma.

Data set [4] addresses glucagon receptor (UniProt P47871). Briefly: cell-based or functional assay.
Data set [5] concerns the target T1, GLP-1 receptor. Briefly: cell-based or functional assay.
Target sequence in this assay (P43220 24-463 limits assumed): as the sequence (P43220 24-463) above
In data set [6] the target is glucagon receptor (UniProt P47871). Briefly: cell-based or functional assay. This is another data set of the same source.
Chain of glucagon receptor (P47871 26-477 limits assumed): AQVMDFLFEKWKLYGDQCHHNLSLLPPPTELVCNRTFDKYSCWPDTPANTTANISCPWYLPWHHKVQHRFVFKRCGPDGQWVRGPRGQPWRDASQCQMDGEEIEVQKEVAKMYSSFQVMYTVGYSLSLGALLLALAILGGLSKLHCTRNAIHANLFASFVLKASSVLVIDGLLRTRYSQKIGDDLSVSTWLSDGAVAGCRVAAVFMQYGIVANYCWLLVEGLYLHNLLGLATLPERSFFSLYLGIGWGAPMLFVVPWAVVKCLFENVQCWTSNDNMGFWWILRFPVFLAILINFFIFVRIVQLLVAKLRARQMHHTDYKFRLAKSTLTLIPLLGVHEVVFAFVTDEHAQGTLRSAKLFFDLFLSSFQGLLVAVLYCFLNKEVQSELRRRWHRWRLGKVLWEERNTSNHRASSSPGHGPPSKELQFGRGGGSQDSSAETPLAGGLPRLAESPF
In the next data set the target is T2, GIP receptor (UniProt P48546 22-466).
T2 sequence (looked up): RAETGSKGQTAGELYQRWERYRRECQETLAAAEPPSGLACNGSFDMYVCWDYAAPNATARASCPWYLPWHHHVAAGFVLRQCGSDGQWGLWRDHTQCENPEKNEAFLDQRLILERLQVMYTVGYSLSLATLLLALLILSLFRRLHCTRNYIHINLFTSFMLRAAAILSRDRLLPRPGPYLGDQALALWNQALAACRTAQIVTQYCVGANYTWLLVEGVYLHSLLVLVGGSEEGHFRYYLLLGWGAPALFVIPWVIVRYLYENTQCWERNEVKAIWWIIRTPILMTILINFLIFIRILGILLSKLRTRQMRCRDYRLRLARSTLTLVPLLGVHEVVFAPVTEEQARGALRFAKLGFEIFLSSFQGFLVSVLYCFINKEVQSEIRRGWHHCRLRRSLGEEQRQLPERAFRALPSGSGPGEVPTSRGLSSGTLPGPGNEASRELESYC
The experiment in a line: cell-based or functional assay.

Data set [7] deals with GLP-1 receptor (UniProt P43220 24-463, limits assumed). Briefly: cell-based or functional assay.

For the molecule `CCCCCCCCCCCCCCCCCCCC(=O)NCCCC[C@@H](N)C(=O)N(C)CC(=O)Nc1ccc(C[C@H](NC(=O)[C@H](CC(=O)O)NC(=O)[C@H](CO)NC(=O)[C@@H](NC(=O)[C@H](Cc2ccccc2)NC(=O)[C@@H](NC(=O)CNC(=O)[C@H](CCC(=O)O)NC(=O)C(C)(C)NC(=O)[C@@H](N)Cc2ccccc2)[C@@H](C)O)[C@@H](C)O)C(=O)N[C@@H](CO)C(=O)N[C@H](C(=O)N[C@@H](Cc2ccc(O)cc2)C(=O)N[C@@H](CC(C)C)C(=O)N[C@@H](CC(=O)O)C(=O)N[C@@H](CCCCN)C(=O)N[C@@H](CCC(N)=O)C(=O)N[C@@H](C)C(=O)N[C@@H](C)C(=O)NC(C)(C)C(=O)N[C@@H](CCC(=O)O)C(=O)N[C@@H](Cc2ccccc2)C(=O)N[C@H](C(=O)N[C@@H](CC(N)=O)C(=O)N[C@@H](Cc2c[nH]c3ccccc23)C(=O)N[C@@H](CC(C)C)C(=O)N[C@@H](CC(C)C)C(=O)N[C@@H](C)C(=O)NCC(=O)NCC(=O)N2CCC[C@H]2C(=O)N[C@@H](CO)C(=O)N[C@@H](CO)C(=O)NCC(=O)N[C@@H](C)C(=O)N2CCC[C@H]2C(=O)N2CCC[C@H]2C(=O)N2CCC[C@H]2C(=O)N[C@@H](CO)C(N)=O)C(C)C)[C@@H](C)CC)cc1` (H-F[Aib]EGTFTSD[Phe(4-NH2)]([Sar-d(εLys)-Arachidoyl])SIYLDKQAA[Aib]EFVNWLLAGGPSSGAPPPS-NH2; N-terminus and C-terminus assumed), the “Relative activity to GLP-1 standard” value at GLP-1 receptor [1] (0 d) was determined as 30.9%; at GLP-1 receptor [1] (1 d) it was 37.8%; on GLP-1 receptor [1] (5 d) it was 96.9%. Moreover, the “Restored (activity relative to parent peptide)” value on GLP-1 receptor [1] (0 d) is reported as “Restored 36%”; at GLP-1 receptor [1] (1 d) it was “Restored 45%”; at GLP-1 receptor [1] (5 d), “Restored 133%”. Further, the “Change of activity over the time points in plasma” value on GLP-1 receptor [1] (0 to 5 d) is recorded as “Activity Restored”. In data set [2], the half-life is around 24 h.
As to `CCCCCCCCCCCCCCCCCC(=O)NCCCC[C@@H](N)C(=O)N(C)CC(=O)NCCCC[C@H](NC(=O)[C@H](CC(=O)O)NC(=O)[C@H](CO)NC(=O)[C@@H](NC(=O)[C@H](Cc1ccccc1)NC(=O)[C@@H](NC(=O)CNC(=O)[C@H](CCC(=O)O)NC(=O)C(C)(C)NC(=O)[C@@H](N)Cc1ccccc1)[C@@H](C)O)[C@@H](C)O)C(=O)N[C@@H](CO)C(=O)N[C@H](C(=O)N[C@@H](Cc1ccc(O)cc1)C(=O)N[C@@H](CC(C)C)C(=O)N[C@@H](CC(=O)O)C(=O)N[C@@H](CCCCN)C(=O)N[C@@H](CCC(N)=O)C(=O)N[C@@H](C)C(=O)N[C@@H](C)C(=O)NC(C)(C)C(=O)N[C@@H](CCC(=O)O)C(=O)N[C@@H](Cc1ccccc1)C(=O)N[C@H](C(=O)N[C@@H](CC(N)=O)C(=O)N[C@@H](Cc1c[nH]c2ccccc12)C(=O)N[C@@H](CC(C)C)C(=O)N[C@@H](CC(C)C)C(=O)N[C@@H](C)C(=O)NCC(=O)NCC(=O)N1CCC[C@H]1C(=O)N[C@@H](CO)C(=O)N[C@@H](CO)C(=O)NCC(=O)N[C@@H](C)C(=O)N1CCC[C@H]1C(=O)N1CCC[C@H]1C(=O)N1CCC[C@H]1C(=O)N[C@@H](CO)C(=O)O)C(C)C)[C@@H](C)CC` [Peptide E], the half-life in data set [3] and in data set [2] was around 168 h throughout.
For `CCCCCCCCCCCCCCCCCCCCCC(=O)NCCCC[C@@H](N)C(=O)N(C)CC(=O)NCCCC[C@H](NC(=O)[C@H](CO)NC(=O)[C@H](Cc1ccc(O)cc1)NC(=O)[C@H](CC(=O)O)NC(=O)[C@H](CO)NC(=O)[C@@H](NC(=O)[C@H](Cc1ccccc1)NC(=O)[C@@H](NC(=O)CNC(=O)[C@H](CCC(=O)O)NC(=O)C(C)(C)NC(=O)[C@@H](N)Cc1ccc(O)cc1)[C@@H](C)O)[C@@H](C)O)C(=O)N[C@@H](Cc1ccc(O)cc1)C(=O)N[C@@H](CC(C)C)C(=O)N[C@@H](CC(=O)O)C(=O)N[C@@H](CCCCN)C(=O)N[C@@H](CCC(N)=O)C(=O)N[C@@H](C)C(=O)N[C@@H](C)C(=O)NC(C)(C)C(=O)N[C@@H](CCC(=O)O)C(=O)N[C@@H](Cc1ccccc1)C(=O)N[C@H](C(=O)N[C@@H](CC(N)=O)C(=O)N[C@@H](Cc1c[nH]c2ccccc12)C(=O)N[C@@H](CC(C)C)C(=O)N[C@@H](CC(C)C)C(=O)N[C@@H](C)C(=O)NCC(=O)NCC(=O)N1CCC[C@H]1C(=O)N[C@@H](CO)C(=O)N[C@@H](CO)C(=O)NCC(=O)N[C@@H](C)C(=O)N1CCC[C@H]1C(=O)N1CCC[C@H]1C(=O)N1CCC[C@H]1C(=O)N[C@@H](CO)C(=O)O)C(C)C` [Peptide F], in data set [3], the half-life was below 24 h.
In the case of `CCCCCCCCCCCCCCCCCCCCCC(=O)NCCCC[C@@H](N)C(=O)N(C)CC(=O)NCCCC[C@H](NC(=O)[C@H](CC(=O)O)NC(=O)[C@H](CC(C)C)NC(=O)[C@H](Cc1ccc(O)cc1)NC(=O)[C@@H](NC(=O)[C@H](CO)NC(=O)[C@H](Cc1ccc(O)cc1)NC(=O)[C@H](CC(=O)O)NC(=O)[C@H](CO)NC(=O)[C@@H](NC(=O)[C@H](Cc1ccccc1)NC(=O)[C@@H](NC(=O)CNC(=O)[C@H](CCC(=O)O)NC(=O)C(C)(C)NC(=O)[C@@H](N)Cc1ccc(O)cc1)[C@@H](C)O)[C@@H](C)O)[C@@H](C)CC)C(=O)N[C@@H](CCC(N)=O)C(=O)N[C@@H](C)C(=O)N[C@@H](C)C(=O)NC(C)(C)C(=O)N[C@@H](CCC(=O)O)C(=O)N[C@@H](Cc1ccccc1)C(=O)N[C@H](C(=O)N[C@@H](CC(N)=O)C(=O)N[C@@H](Cc1c[nH]c2ccccc12)C(=O)N[C@@H](CC(C)C)C(=O)N[C@@H](CC(C)C)C(=O)N[C@@H](C)C(=O)NCC(=O)NCC(=O)N1CCC[C@H]1C(=O)N[C@@H](CO)C(=O)N[C@@H](CO)C(=O)NCC(=O)N[C@@H](C)C(=O)N1CCC[C@H]1C(=O)N1CCC[C@H]1C(=O)N1CCC[C@H]1C(=O)N[C@@H](CO)C(=O)O)C(C)C` [Peptide G], the half-life in data set [3] and in data set [2] was above 168 h in each case.
As for `CCCCCCCCCCCCCCCCCCCCCC(=O)NCCCC[C@@H](N)C(=O)N(C)CC(=O)NCCCC[C@H](NC(=O)[C@H](CO)NC(=O)[C@@H]1CCCN1C(=O)[C@@H]1CCCN1C(=O)[C@@H]1CCCN1C(=O)[C@H](C)NC(=O)CNC(=O)[C@H](CO)NC(=O)[C@H](CO)NC(=O)[C@@H]1CCCN1C(=O)CNC(=O)CNC(=O)[C@H](C)NC(=O)[C@H](CC(C)C)NC(=O)[C@H](CC(C)C)NC(=O)[C@H](Cc1c[nH]c2ccccc12)NC(=O)[C@H](CC(N)=O)NC(=O)[C@@H](NC(=O)[C@H](Cc1ccccc1)NC(=O)[C@H](CCC(=O)O)NC(=O)C(C)(C)NC(=O)[C@H](C)NC(=O)[C@H](C)NC(=O)[C@H](CCC(N)=O)NC(=O)[C@H](CCCCN)NC(=O)[C@H](CC(=O)O)NC(=O)[C@H](CC(C)C)NC(=O)[C@H](Cc1ccc(O)cc1)NC(=O)[C@@H](NC(=O)[C@H](CO)NC(=O)[C@H](Cc1ccc(O)cc1)NC(=O)[C@H](CC(=O)O)NC(=O)[C@H](CO)NC(=O)[C@@H](NC(=O)[C@H](Cc1ccccc1)NC(=O)[C@@H](NC(=O)CNC(=O)[C@H](CCC(=O)O)NC(=O)C(C)(C)NC(=O)[C@@H](N)Cc1ccc(O)cc1)[C@@H](C)O)[C@@H](C)O)[C@@H](C)CC)C(C)C)C(=O)O` [Peptide H], the half-life in data set [3] and in data set [2] was around 120 h each time.
“E9, E16K20(lactam) glucagon(6-39) Cex peptide (Table 1 peptide 3)” gave a Glu IC50 with glucagon receptor [4] of 42 nM. Besides, in the data set with GLP-1 receptor [5], the GLP-1 EC50 was 36 nM. In the data set with glucagon receptor [6], this molecule had a Glucagon IC50 of 42 nM.
As for “[PLA6, E9, K12E16(Lactam)] glucagon(6-39) Cex peptide (Table 1 peptide 5)”, the Glu IC50 with glucagon receptor [4] came out at 72 nM. The same molecule gave a GLP-1 EC50 in the data set with GLP-1 receptor [5] of 6 nM. Moreover, the Glucagon IC50 with glucagon receptor [6] was determined as 72 nM.
As for Y[Aib]EGTFTSDYSIYLDK([Sar-dK-C22 acyl])QAA[Aib]EFVNWLLAGGPSSGAPPPS-NH2 [Peptide G with C22-acylated (d)Lysine-sarcosine dipeptide on Lysine at position 16], the “EC50-GIP, relative activity to GIP standard” value in the data set with GIP receptor amounted to 58.5%. Moreover, in the data set with GLP-1 receptor [7], the “EC50-GLP, relative activity to GLP-1 standard” value was determined as 24.7%.
For Y[Aib]EGTFTSDYSK([Sar-dK-C22 acyl])YLDKQAA[Aib]EFVNWLLAGGPSSGAPPPS-NH2 [Peptide F of Example 8 with C22-acylated (d)Lysine-sarcosine dipeptide on Lysine at position 12], in the data set with GIP receptor, the “EC50-GIP, relative activity to GIP standard” value came out at 30.2%. Further, the “EC50-GLP, relative activity to GLP-1 standard” value in the data set with GLP-1 receptor [7] was 17.4%.
